Among the test systems are TK-10; SK-OV-3; A498; UACC-62; BT-549; Malme-3M; A549; KM12; HOP-62; HCT-15; NCI-H23; SNB-75; OVCAR-5; NCI-H460; SR; ACHN; UACC-257; MDA-MB-435; RXF 393; LOX IMVI.
Assay in all cases: NCI tumour cell line growth inhibition, 48 h

SMILES strings stand for the structures.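 Tested at 5 concentrations; 48 h exposure; 96-well plates; endpoints linearly interpolated, else capped at highest concentration. GI50 is the concentration that inhibits growth by half.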 Calls of active or inactive are those of the source. Rule as the data show it: active = GI50 up to about 1.1 µM and inactive = higher.

On to `O=[N+]([O-])c1cccc(CSc2nc(O)c3nc[nH]c3n2)c1`, for which the GI50 in the experiment with TK-10 was > 100 µM (inactive); in the experiment with SK-OV-3 it was > 100 µM (inactive); in the experiment with A498 it was > 100 µM (inactive); with UACC-62, 50.1 µM (inactive); with BT-549, > 100 µM (inactive); in the experiment on Malme-3M, > 100 µM (inactive). Besides, the GI50 was > 100 µM (inactive) with A549; > 100 µM (inactive) in the experiment with KM12; > 100 µM (inactive) in the experiment with HOP-62; over 100 µM in the experiment with HCT-15; > 100 µM (inactive) in the experiment on NCI-H23; > 100 µM (inactive) with SNB-75. Also, the GI50 with OVCAR-5, in the experiment on NCI-H460, with SR, in the experiment with ACHN, in the experiment with UACC-257 and in the experiment on MDA-MB-435 was > 100 µM (inactive) each time. Further, the GI50 in the experiment with RXF 393 and in the experiment on LOX IMVI was > 100 µM (inactive) each time.
On to `Clc1nc2c(-c3cccs3)ncnc2n1Cc1ccccc1`, for which the GI50 with TK-10 was 23 µM (inactive); in the experiment on SK-OV-3, 38.9 µM (inactive); with A498, 19.4 µM (inactive); with UACC-62 it was 72.3 µM (inactive); with BT-549, 25.8 µM (inactive); in the experiment with Malme-3M, 36.5 µM (inactive). Besides, the GI50 with A549 is 32.4 µM (inactive); in the experiment with KM12, 15.9 µM (inactive); in the experiment on HOP-62, 47.6 µM (inactive); with HCT-15, 32.1 µM; with NCI-H23 it was 46.1 µM (inactive); in the experiment with SNB-75, 21.3 µM (inactive). In addition, the GI50 in the experiment with OVCAR-5 was > 94.2 µM (inactive); in the experiment with NCI-H460 it was 37.9 µM (inactive); in the experiment with SR it was 6.97 µM (inactive); in the experiment on ACHN, 2 µM (inactive); in the experiment with UACC-257, 21.2 µM (inactive); with MDA-MB-435, 49.2 µM (inactive). Besides, the GI50 in the experiment with RXF 393 was 17 µM (inactive); in the experiment on LOX IMVI, > 86.9 µM (inactive).
As to `COC(=O)c1ccc(NCC2=CC(=O)c3ccccc3C2=O)cc1`, the GI50 is 22.2 µM (inactive) with TK-10; 16.1 µM (inactive) in the experiment on SK-OV-3; 24.2 µM (inactive) with A498; 13.6 µM (inactive) in the experiment on UACC-62; 20 µM (inactive) in the experiment on BT-549; 5.81 µM (inactive) with Malme-3M. Also, the GI50 in the experiment on A549 is 22.5 µM (inactive); with KM12, 15.4 µM (inactive); in the experiment on HOP-62, 16.2 µM (inactive); in the experiment on HCT-15, 14.5 µM; in the experiment on NCI-H23 it was 14.5 µM (inactive); in the experiment with SNB-75 it was 20.7 µM (inactive). Also, the GI50 with OVCAR-5 is 21.6 µM (inactive); with NCI-H460, 18.2 µM (inactive); in the experiment on SR it was 14.6 µM (inactive); in the experiment on ACHN, 13.9 µM (inactive); in the experiment on UACC-257, 14.3 µM (inactive); in the experiment with MDA-MB-435, 12.2 µM (inactive). Moreover, the results for the GI50 in the experiment on RXF 393 and in the experiment on LOX IMVI were 22 µM (inactive) and 8.18 µM (inactive), respectively.
For the compound `O=C1NC(O)c2ccccc2O1` (stereo not given), the GI50 in the experiment with TK-10, in the experiment with SK-OV-3, in the experiment on A498, in the experiment with UACC-62, in the experiment on BT-549 and in the experiment with Malme-3M was > 100 µM (inactive) each time. For the same compound, the GI50 in the experiment with A549 is > 100 µM (inactive); in the experiment on KM12, > 100 µM (inactive); with HOP-62, > 100 µM (inactive); with HCT-15, over 100 µM; in the experiment on NCI-H23 it was > 100 µM (inactive); with SNB-75 it was > 100 µM (inactive). Moreover, the GI50 with OVCAR-5, in the experiment with NCI-H460, in the experiment with SR, in the experiment on ACHN, in the experiment on UACC-257 and with MDA-MB-435 was > 100 µM (inactive) throughout. Moreover, the GI50 in the experiment with RXF 393 and in the experiment with LOX IMVI was > 100 µM (inactive) throughout.
Regarding `CC(=O)Nc1n[n+]([O-])c2cc(C)ccc2[n+]1[O-]`, the GI50 was 22.8 µM (inactive) in the experiment with TK-10; 5.86 µM (inactive) in the experiment with SK-OV-3; 5.22 µM (inactive) in the experiment with A498; 1.78 µM (inactive) in the experiment with UACC-62; 3.39 µM (inactive) in the experiment with BT-549; 3.18 µM (inactive) in the experiment with Malme-3M. In addition, the GI50 with A549 was 2.44 µM (inactive); with KM12, 3.68 µM (inactive); in the experiment on HOP-62, 2.89 µM (inactive); in the experiment with HCT-15, 1.7 µM; with NCI-H23 it was 2.19 µM (inactive); in the experiment on SNB-75, 2.88 µM (inactive). In addition, the GI50 in the experiment on OVCAR-5 was 12 µM (inactive); in the experiment on NCI-H460, 0.378 µM (active); in the experiment with SR it was 2.56 µM (inactive); in the experiment with ACHN it was 2.33 µM (inactive); with UACC-257 it was 4.78 µM (inactive); in the experiment with MDA-MB-435, 4.72 µM (inactive). The GI50 is 5.75 µM (inactive) with RXF 393 and 2.4 µM (inactive) in the experiment on LOX IMVI.
In the case of `COc1ccc2c(c1)/c(=C/C#N)c1c3ccccc3[n+](C)n21`, the GI50 was 6.9 µM (inactive) in the experiment with TK-10; 15.5 µM (inactive) in the experiment with SK-OV-3; 1.7 µM (inactive) in the experiment on A498; 13.6 µM (inactive) with UACC-62; 9.08 µM (inactive) with BT-549; 5.21 µM (inactive) with Malme-3M. In addition, the GI50 is 3.39 µM (inactive) in the experiment on A549; 6.04 µM (inactive) in the experiment with KM12; 5.73 µM (inactive) in the experiment on HOP-62; 20.1 µM with HCT-15; 5.3 µM (inactive) in the experiment with NCI-H23; 3.7 µM (inactive) with SNB-75. For the same compound, the GI50 with OVCAR-5 was 8.63 µM (inactive); in the experiment on NCI-H460, 7.23 µM (inactive); in the experiment with SR it was 6.34 µM (inactive); in the experiment on ACHN, 9.38 µM (inactive); in the experiment with UACC-257 it was 6.14 µM (inactive); with MDA-MB-435, 6.87 µM (inactive). Moreover, the values for the GI50 in the experiment with RXF 393 and with LOX IMVI were 10.9 µM (inactive) and 5.97 µM (inactive), respectively.
For `COC(=O)C(CNC(=O)/C=C/c1ccc(OC)c(OC)c1)NC(=O)/C=C/c1ccc(OC)c(OC)c1` (stereo not given), the GI50 in the experiment with TK-10 was > 100 µM (inactive); in the experiment on SK-OV-3, > 100 µM (inactive); in the experiment with A498, > 100 µM (inactive); in the experiment on UACC-62, > 100 µM (inactive); in the experiment with BT-549, > 100 µM (inactive); with Malme-3M it was 92.3 µM (inactive). Besides, the GI50 with A549 is > 100 µM (inactive); in the experiment with KM12, > 100 µM (inactive); with HOP-62, > 100 µM (inactive); in the experiment on HCT-15, over 100 µM; in the experiment on NCI-H23 it was > 100 µM (inactive); in the experiment with SNB-75 it was 90.6 µM (inactive). The GI50 was > 100 µM (inactive) in the experiment on OVCAR-5; 45.2 µM (inactive) with NCI-H460; > 100 µM (inactive) with SR; > 100 µM (inactive) with ACHN; > 100 µM (inactive) in the experiment on UACC-257; > 100 µM (inactive) with MDA-MB-435. For the same compound, the GI50 in the experiment on RXF 393 and in the experiment with LOX IMVI was > 100 µM (inactive) in each case.

The values are drawn from ChEMBL document CHEMBL1201862, “PubChem BioAssay data set” (2004).
